In ChEMBL document CHEMBL6096686, “Lanosterol 14α-Demethylase (CYP51)/Heat Shock Protein 90 (Hsp90) Dual Inhibitors for the Treatment of Invasive Candidiasis” (J Med Chem, 2025):
Converted amounts (≈) assume the structure as drawn. The source made the active and inactive calls. The calls are words filed in the database; no cut-off is given here.

Key:
Candida albicans [1] = experiment: Antifungal activity against Candida albicans SC5314 incubated for 48 hrs by CLSI based liquid microdilution technique; assay type: functional
Nakaseomyces glabratus = experiment: Antifungal activity against Candida glabrata 7804 incubated for 48 hrs by CLSI based liquid microdilution technique; assay type: functional
Cryptococcus neoformans = experiment: Antifungal activity against Cryptococcus neoformans H99 incubated for 72 hrs by CLSI based liquid microdilution technique; assay type: functional
Pichia kudriavzevii = experiment: Antifungal activity against Candida krusei 10153 incubated for 48 hrs by CLSI based liquid microdilution technique; assay type: functional
[2] = Cytotoxicity against HUVEC cells measured after 72 hrs by CCK8 assay; assay type: toxicity, cell-based; conditions: human
[3] = Cytotoxicity against human L02 cells measured after 72 hrs by CCK8 assay; assay type: toxicity, cell-based
[4] = target: T1, Lanosterol 14-alpha demethylase (Candida albicans (strain SC5314 / ATCC MYA-2876) (Yeast), UniProt P10613); experiment: Inhibition of CYP51 in Candida albicans SC5314 assessed as accumulation of eburicol at 4 ug/ml measured after 48 hrs by GC-MS analysis; conditions: at 4 µg/mL
[5] = target: T1, Lanosterol 14-alpha demethylase; experiment: Inhibition of CYP51 in Candida albicans SC5314 assessed as decrease in ERG26 mRNA level at 4 ug/ml measured after 24 hrs by real time RT-PCR analysis; conditions: at 4 µg/mL
[6] = target: T1, Lanosterol 14-alpha demethylase; experiment: Inhibition of CYP51 in Candida albicans SC5314 assessed as decrease in ERG27 mRNA level at 4 ug/ml measured after 24 hrs by real time RT-PCR analysis; conditions: at 4 µg/mL
[7] = target: T1, Lanosterol 14-alpha demethylase; experiment: Inhibition of CYP51 in Candida albicans SC5314 assessed as decrease in ERG6 mRNA level at 4 ug/ml measured after 24 hrs by real time RT-PCR analysis; conditions: at 4 µg/mL
[8] = target: T1, Lanosterol 14-alpha demethylase; experiment: Inhibition of CYP51 in Candida albicans SC5314 assessed as decrease in ERG3 mRNA level at 4 ug/ml measured after 24 hrs by real time RT-PCR analysis; conditions: at 4 µg/mL
[9] = target: Heat shock protein 90 homolog (Candida albicans (strain SC5314 / ATCC MYA-2876) (Yeast), UniProt P46598); experiment: Inhibition of HSP90 extracted from Candida albicans SC5314 lysate using FITC-Geldanamycin as substrate incubated for 6 hrs by fluorescence polarization assay; assay type: subcellular
Candida albicans [10] = experiment: Selectivity index, ratio of MIC80 antifungal activity against Candida albicans SC5314 to MIC80 for antifungal activity against Candida albicans SC5314 harboring HSP90 monoallelic knockout; assay type: functional
Heat shock protein HSP90 = Heat shock protein HSP90 (Homo sapiens, UniProt P07900+P08238); experiment: Inhibition of human HSP90 using FITC-Geldanamycin as substrate incubated for 6 hrs by fluorescence polarization assay; assay type: protein assay
Candida albicans [11] = experiment: Antifungal activity against Candida albicans SC5314 harboring HSP90 monoallelic knockout incubated for 48 hrs by CLSI based liquid microdilution technique; assay type: functional
Candida albicans [12] = experiment: Antifungal activity against Candida albicans SC5314 assessed as fungal growth inhibition at 4 ug/ml incubated for 48 hrs; assay type: functional, organism-based; conditions: dose 4.0 µg/ml
Candida albicans [13] = experiment: Antifungal activity against Candida albicans SC5314 assessed as reduction in fungal growth at 8 ug/ml incubated for 48 hrs (reference value: 8.17 log10CFU/ml); assay type: functional; conditions: dose 8 µg/ml
Candida albicans [14] = experiment: Antifungal activity against Candida albicans SC5314 assessed as fungal growth inhibition incubated for 48 hrs by spot-plating method; assay type: functional, organism-based; conditions: dose 4-32 µg/ml
Candida albicans [15] = experiment: Antifungal activity against Candida albicans SC5314 assessed as fungal growth inhibition at 4 ug/ml incubated for 48 hrs by spot-plating method; assay type: functional, organism-based; conditions: dose 4.0 µg/ml
Candida albicans [16] = experiment: Antifungal activity against Candida albicans SC5314 assessed as fungal growth inhibition at 32 ug/ml incubated for 48 hrs by spot-plating method relative to control; assay type: functional
Candida albicans [17] = experiment: Inhibition of yeast to hypha transition in Candida albicans SC5314 at 4 ug/ml incubated for 2.5 hrs by inverted microscopy; assay type: functional, organism-based; conditions: dose 4.0 µg/ml
Candida albicans [18] = experiment: Inhibition of yeast to hypha transition in Candida albicans SC5314 at 8 ug/ml incubated for 2.5 hrs by inverted microscopy relative to control; assay type: functional
Candida albicans [19] = experiment: Inhibition of biofilm formation in Candida albicans SC5314 at 0.5 ug/ml incubated for 24 hrs by XTT reduction method relative to control; assay type: functional
Candida albicans [20] = experiment: Inhibition of biofilm formation in Candida albicans SC5314 at 4 ug/ml incubated for 24 hrs by XTT reduction method relative to control; assay type: functional
Candida albicans [21] = experiment: Inhibition of biofilm formation in Candida albicans SC5314 at 32 ug/ml incubated for 24 hrs by XTT reduction method relative to control; assay type: functional
Candida albicans [22] = experiment: Inhibition of biofilm formation in Candida albicans SC5314 incubated for 24 hrs by XTT reduction method; assay type: functional, organism-based; conditions: dose <= 32.0 µg/ml
Candida albicans [23] = experiment: Antifungal activity against Candida albicans SC5314 assessed as decrease in BCR1 mRNA level at 4 ug/ml measured after 24 hrs by real time RT-PCR analysis; assay type: functional, organism-based; conditions: dose 4.0 µg/ml
Candida albicans [24] = experiment: Antifungal activity against Candida albicans SC5314 assessed as decrease in EAP1 mRNA level at 4 ug/ml measured after 24 hrs by real time RT-PCR analysis; assay type: functional, organism-based; conditions: dose 4.0 µg/ml
Candida albicans [25] = experiment: Antifungal activity against Candida albicans SC5314 assessed as decrease in HWP1 mRNA level at 4 ug/ml measured after 24 hrs by real time RT-PCR analysis; assay type: functional, organism-based; conditions: dose 4.0 µg/ml
Candida albicans [26] = experiment: Antifungal activity against Candida albicans SC5314 assessed as decrease in ALS3 mRNA level at 4 ug/ml measured after 24 hrs by real time RT-PCR analysis; assay type: functional, organism-based; conditions: dose 4.0 µg/ml
Candida albicans [27] = experiment: Antifungal activity against Candida albicans SC5314 assessed as decrease in EFG1 mRNA level at 4 ug/ml measured after 24 hrs by real time RT-PCR analysis; assay type: functional, organism-based; conditions: dose 4.0 µg/ml
Candida albicans [28] = experiment: Antifungal activity against Candida albicans SC5314 assessed as decrease in CPH1 mRNA level at 4 ug/ml measured after 24 hrs by real time RT-PCR analysis; assay type: functional, organism-based; conditions: dose 4.0 µg/ml
Candida albicans [29] = experiment: Antifungal activity against Candida albicans SC5314 assessed as decrease in ACE2 mRNA level at 4 ug/ml measured after 24 hrs by real time RT-PCR analysis; assay type: functional, organism-based; conditions: dose 4.0 µg/ml
Candida albicans [30] = experiment: Antifungal activity against Candida albicans SC5314 assessed as decrease in TEC1 mRNA level at 4 ug/ml measured after 24 hrs by real time RT-PCR analysis; assay type: functional, organism-based; conditions: dose 4.0 µg/ml
Candida albicans [31] = experiment: Antifungal activity against Candida albicans SC5314 assessed as decrease in RLM1 mRNA level at 4 ug/ml measured after 24 hrs by real time RT-PCR analysis; assay type: functional, organism-based; conditions: dose 4.0 µg/ml
Candida albicans [32] = experiment: Antifungal activity against Candida albicans SC5314 assessed as decrease in ZAP1 mRNA level at 4 ug/ml measured after 24 hrs by real time RT-PCR analysis; assay type: functional, organism-based; conditions: dose 4.0 µg/ml
Candida albicans [33] = experiment: Antifungal activity against Candida albicans SC5314 infected in immunosuppressed ICR mouse assessed as reduction in fungal burden in kidney at 5 mg/kg, ip treated for 5 days consecutively (reference value: 6.71 log10CFU/ml); assay type: functional; conditions: time 5 day
Candida albicans [34] = experiment: Antifungal activity against Candida albicans SC5314 infected in immunosuppressed ICR mouse assessed as reduction in fungal burden in kidney at 10 mg/kg, ip treated for 5 days consecutively (reference value: 6.71 log10CFU/ml); assay type: functional; conditions: time 5 day
Candida albicans [35] = experiment: Antifungal activity against Candida albicans SC5314 infected in immunosuppressed ICR mouse assessed as reduction in fungal burden in kidney at 20 mg/kg, ip treated for 5 days consecutively (reference value: 6.71 log10CFU/ml); assay type: functional; conditions: time 5 day
Candida albicans [36] = experiment: Antifungal activity against Candida albicans SC5314 infected in immunosuppressed ICR mouse administered intraperitoneally treated for 5 days consecutively; assay type: functional, organism-based; conditions: dose 5-20 mg/kg, route ip, time 5.0 day

T1 sequence (P10613 whole entry): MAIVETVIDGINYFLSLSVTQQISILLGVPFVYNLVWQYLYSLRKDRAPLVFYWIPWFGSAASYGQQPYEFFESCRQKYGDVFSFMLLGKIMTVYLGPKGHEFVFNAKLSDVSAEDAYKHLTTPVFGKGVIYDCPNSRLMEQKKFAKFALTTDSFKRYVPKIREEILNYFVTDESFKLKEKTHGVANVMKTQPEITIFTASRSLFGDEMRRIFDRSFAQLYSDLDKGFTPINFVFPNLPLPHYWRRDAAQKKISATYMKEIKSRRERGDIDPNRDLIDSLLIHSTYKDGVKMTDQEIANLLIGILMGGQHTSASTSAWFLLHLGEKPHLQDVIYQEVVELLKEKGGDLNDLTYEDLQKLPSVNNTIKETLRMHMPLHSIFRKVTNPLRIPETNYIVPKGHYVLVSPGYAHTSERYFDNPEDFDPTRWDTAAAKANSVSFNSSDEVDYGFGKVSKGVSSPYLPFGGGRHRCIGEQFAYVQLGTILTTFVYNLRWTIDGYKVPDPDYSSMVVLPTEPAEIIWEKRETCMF
Sequence of Heat shock protein 90 homolog (P46598 whole entry): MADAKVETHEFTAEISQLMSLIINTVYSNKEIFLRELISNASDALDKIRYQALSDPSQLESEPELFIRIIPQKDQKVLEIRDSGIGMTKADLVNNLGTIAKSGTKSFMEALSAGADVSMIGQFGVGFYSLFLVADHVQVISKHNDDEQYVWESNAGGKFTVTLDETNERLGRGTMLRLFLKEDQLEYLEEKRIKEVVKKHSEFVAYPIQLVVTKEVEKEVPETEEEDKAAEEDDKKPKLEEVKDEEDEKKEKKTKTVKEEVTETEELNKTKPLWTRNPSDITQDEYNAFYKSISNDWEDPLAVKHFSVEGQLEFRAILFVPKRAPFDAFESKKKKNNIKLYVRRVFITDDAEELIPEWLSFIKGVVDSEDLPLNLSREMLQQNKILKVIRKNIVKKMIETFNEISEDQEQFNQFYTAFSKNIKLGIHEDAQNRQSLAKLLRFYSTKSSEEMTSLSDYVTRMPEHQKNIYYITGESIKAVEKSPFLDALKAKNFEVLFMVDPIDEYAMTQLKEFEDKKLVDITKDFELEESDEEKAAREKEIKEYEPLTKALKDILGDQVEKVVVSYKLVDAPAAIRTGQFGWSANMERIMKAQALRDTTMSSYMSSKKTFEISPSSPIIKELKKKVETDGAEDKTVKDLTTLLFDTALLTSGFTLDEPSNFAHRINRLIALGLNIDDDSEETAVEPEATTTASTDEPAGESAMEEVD

Structure (SMILES): CCN(C(=O)c1cc(-c2ccc(C)cc2)c(OCc2ccccc2)cc1OCc1ccccc1)c1ccc(CN2CCN(CC(O)(Cn3cncn3)c3ccc(F)cc3F)CC2)cc1 (stereo not drawn)
- MIC80 (Candida albicans [1]): > 64 µg/mL
- MIC80 (Nakaseomyces glabratus): 16 µg/mL (≈ 18.5 µM)
- MIC80 (Cryptococcus neoformans): > 64 µg/mL
- MIC80 (Pichia kudriavzevii): > 64 µg/mL

Structure (SMILES): CCN(C(=O)c1cc(-c2ccc(C)cc2)c(O)cc1O)c1ccc(CN2CCN(CC(O)(Cn3cncn3)c3ccc(F)cc3F)CC2)cc1 (stereo not drawn)
- MIC80 (Candida albicans [1]): 0.063 µg/mL (≈ 0.0923 µM)
- MIC80 (Nakaseomyces glabratus): 8 µg/mL (≈ 11.7 µM)
- MIC80 (Cryptococcus neoformans): 4 µg/mL (≈ 5.86 µM)
- MIC80 (Pichia kudriavzevii): 16 µg/mL (≈ 23.4 µM)
- IC50 at 72 h [2]: 2100 nM
- IC50 at 72 h [3]: 2100 nM
- inhibition (INH) [4]: Active
- inhibition (INH) [5]: Active
- inhibition (INH) [6]: Active
- inhibition (INH) [7]: Active
- inhibition (INH) [8]: Active
- IC50 [9]: 740 nM
- Ratio (Candida albicans [10]): 16
- IC50 (Heat shock protein HSP90): 6630 nM
- MIC80 (Candida albicans [11]): 0.004 µg/mL (≈ 0.00586 µM)
- inhibition (Candida albicans [12]): Active; Activity Was Superior Than Flc
- Activity (Candida albicans [13]): 7.39 log10CFU/ml
- inhibition (Candida albicans [14]): Dose-dependent-effect
- inhibition (Candida albicans [15]): Active; Activity Was Superior Than Flc
- inhibition at 32 µg/mL (Candida albicans [16]): ~100%
- inhibition (Candida albicans [17]): Active; Inhibitory Effect Was Superior Than Flc
- inhibition at 8 µg/mL (Candida albicans [18]): 100%
- inhibition at 0.5 µg/mL (Candida albicans [19]): > 50%
- inhibition at 4 µg/mL (Candida albicans [20]): > 80%
- inhibition at 32 µg/mL (Candida albicans [21]): 100%
- inhibition (Candida albicans [22]): Dose-dependent-effect; Result Indicated That Compound Was More Potent Than Flc
- Activity (Candida albicans [23]): Active
- Activity (Candida albicans [24]): Active
- Activity (Candida albicans [25]): Active
- Activity (Candida albicans [26]): Active
- Activity (Candida albicans [27]): Active
- Activity (Candida albicans [28]): Active
- Activity (Candida albicans [29]): Active
- Activity (Candida albicans [30]): Active
- Activity (Candida albicans [31]): Active
- Activity (Candida albicans [32]): Active
- Activity (Candida albicans [33]): 6.14 log10CFU/ml
- Activity (Candida albicans [34]): 5.83 log10CFU/ml
- Activity (Candida albicans [35]): 5.47 log10CFU/ml
- Activity (Candida albicans [36]): Dose-dependent-effect

Structure (SMILES): OC(Cn1cncn1)(Cn1cncn1)c1ccc(F)cc1F [FLUCONAZOLE]
- MIC80 (Candida albicans [1]): 0.5 µg/mL (≈ 1.63 µM)
- MIC80 (Nakaseomyces glabratus): 16 µg/mL (≈ 52.2 µM)
- MIC80 (Cryptococcus neoformans): 1 µg/mL (≈ 3.27 µM)
- MIC80 (Pichia kudriavzevii): 64 µg/mL (≈ 209 µM)
- inhibition (INH) [4]: Active

Structure (SMILES): CCNC(=O)c1noc(-c2cc(-c3ccc(C)cc3)c(O)cc2O)c1-c1ccc(CN2CCN(C(=O)CCCOc3ccc(CN(C)CC(O)(Cn4cncn4)c4ccc(F)cc4F)cc3)CC2)cc1 (stereo not drawn)
- MIC80 (Candida albicans [1]): 8 µg/mL (≈ 8.38 µM)
- MIC80 (Nakaseomyces glabratus): 16 µg/mL (≈ 16.8 µM)
- MIC80 (Cryptococcus neoformans): 4 µg/mL (≈ 4.19 µM)
- MIC80 (Pichia kudriavzevii): > 64 µg/mL
